Legend:
Conditions in all cases: incubation time: 72 h
HCC1937 [1] = experiment: normalised viability (% of control), CellTiter-Blue; higher = more viable cells (100 = DMSO, 0 = benzethonium chloride kill control)
Experimental: (§1)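 DSRT, CellTiter-Blue viability, 72 h incubation. Signal is normalised to DMSO and benzethonium chloride controls. Value is the normalised response at dose 1.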

CAL-148 = experiment: as above
Experimental: as §1

MDA-MB-453 = experiment: as above
Experimental: as §1

Hs578T [2] = experiment: as above
Experimental: as §1

BT-474 = experiment: as above
Experimental: as §1

HCC1599 = experiment: as above
Experimental: as §1

HDQ-P1 = experiment: as above
Experimental: as §1

DU-4475 [3] = experiment: as above
Experimental: as §1

MDA-MB-231 [4] = experiment: as above
Experimental: as §1

CAL-120 = experiment: as above
Experimental: as §1

CAL-51 [5] = experiment: as above
Experimental: as §1

MDA-MB-468 [6] = experiment: as above
Experimental: as §1

MFM-223 [7] = experiment: as above
Experimental: as §1

MDA-MB-436 [8] = experiment: as above
Experimental: as §1

BT-549 = experiment: as above
Experimental: as §1

HCC1143 [9] = experiment: as above
Experimental: as §1

SK-BR-3 = experiment: as above
Experimental: as §1

CAL-85-1 = experiment: as above
Experimental: as §1

HCC1937 [10] = experiment: normalised viability (% of control), CellTiter-Blue; higher = more viable cells (about 100 = DMSO control)
Method in brief: (§2)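 Breast cancer cell lines in 20 µl suspension were seeded onto 384-well plates pre-loaded with compound dissolved in 5 µl medium, then incubated 72 h. CellTiter-Blue reagent (2.5 µl) was added for 2 h at 37 °C and fluorescence read at 560/590 nm. Each plate was normalised to vehicle (100) and a positive kill control (0), with Z'-factor quality control. The value is normalised viability at one listed concentration of the series.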

Hs578T [11] = experiment: as above
Method in brief: as §2

DU-4475 [12] = experiment: as above
Method in brief: as §2

MDA-MB-231 [13] = experiment: as above
Method in brief: as §2

CAL-51 [14] = experiment: as above
Method in brief: as §2

MDA-MB-468 [15] = experiment: as above
Method in brief: as §2

MFM-223 [16] = experiment: as above
Method in brief: as §2

MDA-MB-436 [17] = experiment: as above
Method in brief: as §2

HCC1143 [18] = experiment: as above
Method in brief: as §2

Cn1cc(CNCC2CCN(c3ncc(C(=O)NO)cn3)CC2)c2ccccc21
Conditions | normalised viability [%]
BT-474, 0.1 nM | 98.1
BT-549, 0.1 nM | 88.6
CAL-51 [5], 0.1 nM | 105
CAL-51 [14], 0.3 nM | 116
CAL-51 [14], 3 nM | 115
CAL-51 [14], 10 nM | 97.2
CAL-85-1, 0.1 nM | 84.9
CAL-120, 0.1 nM | 89.2
CAL-148, 0.1 nM | 103
DU-4475 [3], 0.1 nM | 97.6
DU-4475 [12], 0.3 nM | 88.5
DU-4475 [12], 3 nM | 93.7
DU-4475 [12], 10 nM | 60
HCC1143 [9], 0.1 nM | 95.7
HCC1143 [18], 1 nM | 83
HCC1143 [18], 100 nM | 23.6
HCC1143 [18], 1000 nM | 11.1
HCC1599, 0.1 nM | 101
HCC1937 [1], 0.1 nM | 106
HCC1937 [10], 1 nM | 69.2
HCC1937 [10], 100 nM | 31.8
HCC1937 [10], 1000 nM | 14.7
HDQ-P1, 0.1 nM | 83.6
Hs578T [2], 0.1 nM | 120
Hs578T [11], 1 nM | 128
Hs578T [11], 100 nM | 39.3
Hs578T [11], 1000 nM | 5.1
MDA-MB-231 [4], 0.1 nM | 95.6
MDA-MB-231 [13], 1 nM | 103
MDA-MB-231 [13], 100 nM | 17.7
MDA-MB-231 [13], 1000 nM | 5.23
MDA-MB-436 [8], 0.1 nM | 87.9
MDA-MB-436 [17], 1 nM | 94.5
MDA-MB-436 [17], 100 nM | 80.6
MDA-MB-436 [17], 1000 nM | 17.7
MDA-MB-453, 0.1 nM | 98.8
MDA-MB-468 [6], 0.1 nM | 91.1
MDA-MB-468 [15], 1 nM | 107
MDA-MB-468 [15], 100 nM | 38
MDA-MB-468 [15], 1000 nM | 14.5
MFM-223 [7], 0.1 nM | 89.5
MFM-223 [16], 1 nM | 88.9
MFM-223 [16], 100 nM | 28.5
MFM-223 [16], 1000 nM | 8.06
SK-BR-3, 0.1 nM | 97.5

O=C(NC[C@H](O)CO)c1ccncc1Nc1ccc(I)cc1F
Conditions | normalised viability [%]
BT-474, 1 nM | 96.8
BT-549, 1 nM | 111
CAL-51 [5], 1 nM | 99.6
CAL-51 [14], 3 nM | 111
CAL-51 [14], 30 nM | 88.5
CAL-51 [14], 100 nM | 85.8
CAL-85-1, 1 nM | 92.1
CAL-120, 1 nM | 81.3
CAL-148, 1 nM | 92.3
DU-4475 [3], 1 nM | 92.6
DU-4475 [12], 3 nM | 79.2
DU-4475 [12], 30 nM | 16.4
DU-4475 [12], 100 nM | 1.76
HCC1143 [9], 1 nM | 87.6
HCC1143 [18], 10 nM | 69.5
HCC1143 [18], 1000 nM | 55.4
HCC1143 [18], 10000 nM | 50.1
HCC1599, 1 nM | 108
HCC1937 [1], 1 nM | 87.6
HCC1937 [10], 10 nM | 94.6
HCC1937 [10], 1000 nM | 87.8
HCC1937 [10], 10000 nM | 79.8
HDQ-P1, 1 nM | 103
Hs578T [2], 1 nM | 111
Hs578T [11], 10 nM | 114
Hs578T [11], 1000 nM | 95.3
Hs578T [11], 10000 nM | 67.4
MDA-MB-231 [4], 1 nM | 92.5
MDA-MB-231 [13], 10 nM | 75.5
MDA-MB-231 [13], 1000 nM | 31.7
MDA-MB-231 [13], 10000 nM | 31.4
MDA-MB-436 [8], 1 nM | 124
MDA-MB-436 [17], 10 nM | 92.2
MDA-MB-436 [17], 1000 nM | 85.6
MDA-MB-436 [17], 10000 nM | 79.2
MDA-MB-453, 1 nM | 87.9
MDA-MB-468 [6], 1 nM | 104
MDA-MB-468 [15], 10 nM | 97.7
MDA-MB-468 [15], 1000 nM | 85.7
MDA-MB-468 [15], 10000 nM | 60.7
MFM-223 [7], 1 nM | 97.9
MFM-223 [16], 10 nM | 90.2
MFM-223 [16], 1000 nM | 86
MFM-223 [16], 10000 nM | 52.2
SK-BR-3, 1 nM | 92.1
